Values quoted from earlier work in US20190314382A1, “COMPOUNDS AND PHARMACEUTICAL COMPOSITIONS THEREOF FOR THE TREATMENT OF INFLAMMATORY DISEASES” (Galapagos NV, priority 2016, published 2019).

Tested on: MRL/lpr mice
Conditions: cited from earlier work

SMILES: N#C/C(=C\c1ccc(O)c(O)c1)C(=O)NCc1ccccc1 [tyrphostin AG490]
- renal expression of monocyte chemotactic protein (MCP)-1, interferon (IFN)-γ and class II MHC: significantly inhibited
- renal infiltration of T cells and macrophages: reduced
